Publication PMC7897990, “TriTOX: A novel Trichomonas vaginalis assay platform for high-throughput screening of compound libraries” (International Journal for Parasitology: Drugs and Drug …, 2021)
Where two headings read alike, the source gives them in different places. Starred links: 1 amine or outer side, 2 acyl side, 3 side chain; linkers in the order of their positions; H or OH if unused. Positions of bridges follow the written chain, without caps; N, C: chain ends. Non-standard residues stand in square brackets, D forms with d. Residues, ends and D or L forms follow the SMILES beside them. Chains are numbered I, II in the order given. ξ: configuration not given here. *: point of attachment. Actinocin(9to1) = Cc1c2oc3c(C)ccc(C(=O)[*:1])c3nc-2c(C(=O)[*:2])c(N)c1=O; pTerphenylCO(4''-OnC5H11) = CCCCCOc1ccc(-c2ccc(-c3ccc(C(=O)*)cc3)cc2)cc1; ξOrn(4,5-diOH) = O=C(C(CC(O)C(O)N[*:3])N[*:1])[*:2]; ξhTyr(βξ-OH,γξ-OH) = NC(C(=O)O)C(O)C(O)c1ccc(O)cc1; Aoe = N[C@@H](CCCCCC(=O)[C@@H]1CO1)C(=O)O; ξPro(3ξ-OH,4ξ-Me) = CC1CNC(C(=O)O)C1O; Hyp = O=C(O)[CH]1C[CH](O)CN1; NMeV = CN[CH](C(=O)O)C(C)C; Sar = CNCC(=O)O

Tests used:
[1] = tested on: nontumorigenic neonatal foreskin fibroblast (NFF) cell line; settings: NFF_NS1 screen 5 µg/mL, single concentration
[2] = tested on: Trichomonas vaginalis G3 trophozoites; settings: for T.vaginalis_%inb_Rep1 / T.vaginalis_%inb_Rep2: parasite screen 1 µg/mL
[3] = HTS single concentration, replicate 1
[4] = HTS single concentration, replicate 2

Molecule: CCC(=O)CCCCCC1NC(=O)C2CCCCN2C(=O)C(C(C)CC)NC(=O)C(Cc2cn(OC)c3ccccc23)NC1=O (centres unmarked) [BIA-A1006]
- NFF_Activity [1]: I (otherwise these were reported as inactive (I))
- T.vaginalis_%inb_Rep1 [2, 3]: 13.25%
- T.vaginalis_%inb_Rep2 [2, 4]: 17.28%

Molecule: COC(=O)c1cc(O)cc(OC)c1Oc1cc(C)cc(O)c1C(=O)O [BIA-A1008]
- NFF_Activity [1]: I (otherwise these were reported as inactive (I))
- T.vaginalis_%inb_Rep1 [2, 3]: 16.05%
- T.vaginalis_%inb_Rep2 [2, 4]: 13.59%

Molecule: COc1oc([C@H]2C/C(=C/C(C)=C/c3ccc([N+](=O)[O-])cc3)CO2)c(C)c(=O)c1C [BIA-A1009]
- NFF_Activity [1]: I (otherwise these were reported as inactive (I))
- T.vaginalis_%inb_Rep1 [2, 3]: 12.82%
- T.vaginalis_%inb_Rep2 [2, 4]: 5.78%

Molecule: CC[C@H](C)[C@H]1O[C@]2(C=C[C@@H]1C)C[C@@H]1C[C@@H](C/C=C(\C)[C@@H](O[C@H]3C[C@H](OC)[C@@H](O[C@H]4C[C@H](OC)[C@@H](O)[C@H](C)O4)[C@H](C)O3)[C@@H](C)/C=C/C=C3\CO[C@@H]4[C@H](O)C(C)=C[C@@H](C(=O)O1)[C@]34O)O2 [BIA-A1010]
- NFF_Activity [1]: I (otherwise these were reported as inactive (I))
- T.vaginalis_%inb_Rep1 [2, 3]: 14.32%
- T.vaginalis_%inb_Rep2 [2, 4]: 14.17%

Molecule: CO[C@H]1C[C@H](O[C@H]2[C@H](C)O[C@@H](O[C@@H]3/C(C)=C/C[C@@H]4C[C@@H](C[C@]5(C=C[C@H](C)[C@@H](C(C)C)O5)O4)OC(=O)[C@@H]4C=C(C)[C@@H](O)[C@H]5OC/C(=C\C=C\[C@@H]3C)[C@]54O)C[C@@H]2OC)O[C@@H](C)[C@@H]1O [BIA-A1011]
- NFF_Activity [1]: I (otherwise these were reported as inactive (I))
- T.vaginalis_%inb_Rep1 [2, 3]: 14.65%
- T.vaginalis_%inb_Rep2 [2, 4]: 18.51%

Molecule: CC(/C=C/[C@@]1(C)[C@H](C)CCC(=O)[C@@H]1C)=C\Cc1c(O)c(Cl)c(C)c(C=O)c1O [BIA-A1115]
- NFF_Activity [1]: I (otherwise these were reported as inactive (I))
- T.vaginalis_%inb_Rep1 [2, 3]: 16.42%
- T.vaginalis_%inb_Rep2 [2, 4]: 18.08%

Molecule: CCC(=O)Nc1c2sscc-2n(C)c1=O [BIA-A1120]
- NFF_Activity [1]: A (active (A) compounds having >25% inhibitory activity)
- T.vaginalis_%inb_Rep1 [2, 3]: 100.00%
- T.vaginalis_%inb_Rep2 [2, 4]: 82.07%

Molecule: Cc1c2oc3c(C)ccc(C(=O)NC4C(=O)NC(C(C)C)C(=O)N5CCCC5C(=O)N(C)CC(=O)N(C)C(C(C)C)C(=O)OC4C)c3nc-2c(C(=O)NC2C(=O)NC(C(C)C)C(=O)N3CCCC3C(=O)N(C)CC(=O)N(C)C(C(C)C)C(=O)OC2C)c(N)c1=O (centres unmarked) [BIA-A1185] (I: TVP[Sar][NMeV] / II: TVP[Sar][NMeV]; ester I:1-I:C, II:1-II:C; linker I:N-II:N via Actinocin(9to1); configuration not given here)
- NFF_Activity [1]: I (otherwise these were reported as inactive (I))
- T.vaginalis_%inb_Rep1 [2, 3]: 0.00%
- T.vaginalis_%inb_Rep2 [2, 4]: 40.20%

Molecule: COc1ccc(C[C@H]2NC[C@H](O)[C@H]2OC(C)=O)cc1 [BIA-A1215]
- NFF_Activity [1]: I (otherwise these were reported as inactive (I))
- T.vaginalis_%inb_Rep1 [2, 3]: 63.76%
- T.vaginalis_%inb_Rep2 [2, 4]: 97.54%

Molecule: CC1OC(OC2C(CO)OC(OC3C(CO)OC(O)C(O)C3O)C(O)C2O)C(O)C(O)C1NC1C=C(CO)C(O)C(O)C1O (centres unmarked) [BIA-A1231]
- NFF_Activity [1]: I (otherwise these were reported as inactive (I))
- T.vaginalis_%inb_Rep1 [2, 3]: 14.16%
- T.vaginalis_%inb_Rep2 [2, 4]: 6.22%

Molecule: COc1cc2c(c3oc(=O)c4c(c13)CCC4=O)[C@@H]1C=CO[C@@H]1O2 [BIA-A1232]
- NFF_Activity [1]: I (otherwise these were reported as inactive (I))
- T.vaginalis_%inb_Rep1 [2, 3]: 12.06%
- T.vaginalis_%inb_Rep2 [2, 4]: 5.64%

Molecule: COc1cc2c(c3oc(=O)c4c(c13)CCC4=O)[C@@H]1CCO[C@@H]1O2 [BIA-A1233]
- NFF_Activity [1]: I (otherwise these were reported as inactive (I))
- T.vaginalis_%inb_Rep1 [2, 3]: 13.46%
- T.vaginalis_%inb_Rep2 [2, 4]: 11.14%

Molecule: COc1cc2c(c3oc(=O)c4c(c13)CCOC4=O)[C@@H]1C=CO[C@@H]1O2 [BIA-A1234]
- NFF_Activity [1]: I (otherwise these were reported as inactive (I))
- T.vaginalis_%inb_Rep1 [2, 3]: 14.70%
- T.vaginalis_%inb_Rep2 [2, 4]: 13.02%

Molecule: COc1cc2c(c3oc(=O)c4c(c13)CCOC4=O)[C@@H]1CCO[C@@H]1O2 [BIA-A1235]
- NFF_Activity [1]: I (otherwise these were reported as inactive (I))
- T.vaginalis_%inb_Rep1 [2, 3]: 12.33%
- T.vaginalis_%inb_Rep2 [2, 4]: 13.81%

Molecule: CC[C@H]1OC(=O)[C@H](C)[C@@H](O[C@H]2C[C@@](C)(OC)[C@@H](O)[C@H](C)O2)[C@H](C)[C@@H](O[C@@H]2O[C@H](C)C[C@H](N(C)C)[C@H]2O)[C@](C)(O)C[C@@H](C)CN(C)[C@H](C)[C@@H](O)[C@]1(C)O [BIA-A1312]
- NFF_Activity [1]: I (otherwise these were reported as inactive (I))
- T.vaginalis_%inb_Rep1 [2, 3]: 6.35%
- T.vaginalis_%inb_Rep2 [2, 4]: 11.21%

Molecule: Cc1c2c(c(O)c3c(O)cccc13)C(=O)[C@]1(O)C(=O)C(C(N)=O)=C(O)[C@@H](N(C)C)[C@@H]1C2.Cl [BIA-A1340]
- NFF_Activity [1]: I (otherwise these were reported as inactive (I))
- T.vaginalis_%inb_Rep1 [2, 3]: 6.73%
- T.vaginalis_%inb_Rep2 [2, 4]: 9.54%

Molecule: CCC1OC(=O)C(C)C(OC2CC(C)(OC)C(O)C(C)O2)C(C)C(OC2OC(C)CC(N(C)C)C2O)C2(C)CC(C)C3(O2)OC1(C)C(O)C3C (centres unmarked) [BIA-A1348]
- NFF_Activity [1]: I (otherwise these were reported as inactive (I))
- T.vaginalis_%inb_Rep1 [2, 3]: 15.19%
- T.vaginalis_%inb_Rep2 [2, 4]: 13.67%

Molecule: C[C@@H]1NC(=O)[C@H](CCCCCC(=O)[C@@H]2CO2)NC(=O)[C@H]2CCCN2C(=O)[C@H](Cc2ccccc2)NC1=O [BIA-A1402] (cyclo(AF[dP][Aoe]))
- NFF_Activity [1]: I (otherwise these were reported as inactive (I))
- T.vaginalis_%inb_Rep1 [2, 3]: 64.03%
- T.vaginalis_%inb_Rep2 [2, 4]: 94.29%

Molecule: C=C1C(=O)OC2C(=O)OC(CCCCCCCC)C12 (centres unmarked) [BIA-A1409]
- NFF_Activity [1]: A (active (A) compounds having >25% inhibitory activity)
- T.vaginalis_%inb_Rep1 [2, 3]: 15.19%
- T.vaginalis_%inb_Rep2 [2, 4]: 12.94%

Molecule: CCCCCOc1ccc(-c2ccc(-c3ccc(C(=O)NC4CC(O)C(O)NC(=O)C5C(O)C(C)CN5C(=O)C(C(C)O)NC(=O)C(C(O)C(O)c5ccc(O)cc5)NC(=O)C5CC(O)CN5C(=O)C(C(C)O)NC4=O)cc3)cc2)cc1 (stereo not drawn) [BIA-A1423] ({pTerphenylCO(4''-OnC5H11)}-[ξOrn(4,5-diOH)]T[Hyp][ξhTyr(βξ-OH,γξ-OH)]T[ξPro(3ξ-OH,4ξ-Me)]; lactam 1-C; configuration not given here)
- NFF_Activity [1]: I (otherwise these were reported as inactive (I))
- T.vaginalis_%inb_Rep1 [2, 3]: 14.75%
- T.vaginalis_%inb_Rep2 [2, 4]: 12.08%

Molecule: CC1C=CC=CC=CC=CC=CC=CC=CC(OC2OC(C)C(O)C(N)C2O)CC2OC(O)(CC(O)CC(O)C(O)CCC(O)CC(O)CC(=O)OC(C)C(C)C1O)CC(O)C2C(=O)O (centres unmarked) [BIA-A1441]
- NFF_Activity [1]: I (otherwise these were reported as inactive (I))
- T.vaginalis_%inb_Rep1 [2, 3]: 13.68%
- T.vaginalis_%inb_Rep2 [2, 4]: 14.03%

Molecule: CCCCCC[C@H]1C(=O)O[C@H](C)[C@H](NC(=O)c2cccc(NC=O)c2O)C(=O)O[C@@H](C)[C@@H]1OC(=O)CC(C)C [BIA-A1442]
- NFF_Activity [1]: I (otherwise these were reported as inactive (I))
- T.vaginalis_%inb_Rep1 [2, 3]: 17.88%
- T.vaginalis_%inb_Rep2 [2, 4]: 12.87%

Molecule: CCCC[C@H]1C(=O)O[C@H](C)[C@H](NC(=O)c2cccc(NC=O)c2O)C(=O)O[C@@H](C)[C@@H]1OC(=O)CC(C)C [BIA-A1444]
- NFF_Activity [1]: I (otherwise these were reported as inactive (I))
- T.vaginalis_%inb_Rep1 [2, 3]: 12.87%
- T.vaginalis_%inb_Rep2 [2, 4]: 14.61%

Molecule: [N-]=[N+]=NCC(=O)N[C@H](CO)[C@H](O)c1ccc([N+](=O)[O-])cc1 [BIA-A1485]
- NFF_Activity [1]: I (otherwise these were reported as inactive (I))
- T.vaginalis_%inb_Rep1 [2, 3]: 12.55%
- T.vaginalis_%inb_Rep2 [2, 4]: 16.12%

Molecule: CC[C@]1(C)C[C@@H](OC(=O)CSc2n[nH]c(N)n2)[C@]2(C)[C@H](C)CC[C@]3(CCC(=O)[C@H]32)[C@@H](C)[C@@H]1O [BIA-A1489]
- NFF_Activity [1]: I (otherwise these were reported as inactive (I))
- T.vaginalis_%inb_Rep1 [2, 3]: 14.65%
- T.vaginalis_%inb_Rep2 [2, 4]: 19.67%

Molecule: CC(=O)N[C@H]1CCOC1=O [BIA-A1493]
- NFF_Activity [1]: I (otherwise these were reported as inactive (I))
- T.vaginalis_%inb_Rep1 [2, 3]: 15.89%
- T.vaginalis_%inb_Rep2 [2, 4]: 26.61%

Molecule: Milbemycin oxime
- T.vaginalis_%inb_Rep1 ([2]; HTS replicate 1): 12.53%
- T.vaginalis_%inb_Rep2 ([2]; HTS replicate 2): 12.96%

Molecule: Pyripyropene A
- T.vaginalis_%inb_Rep1 ([2]; HTS replicate 1): 11.61%
- T.vaginalis_%inb_Rep2 ([2]; HTS replicate 2): 12.83%

Molecule: ikarugamycin [reference compound]
- T. vaginalis HTS result in words ([2]; 384-well, 25 μL, 10,000 cells/mL, 48 h, biological duplicates, hit = >50% inhibition): supported the anti-trichomonal activity
